{"source": "patent US9629850B2", "about": "“Combination of MEK inhibitors and selective inhibitors of Aurora A kinase” (priority 2011, dated 2017)", "key": {"[1]": {"tested_on": "NCI-H23 Non Small Cell Lung Carcinoma Xenografts", "assay": "Anti-tumor activity in female nude mice bearing NCI-H23 xenografts", "settings": "for TGI: Day 99; for TFS (tumor-free survivors): Day 135, n=8", "description": "MLN8237 was prepared in 10% hydroxypropyl-beta-cyclodextrin (HP-β-CD) (Sigma, St. Louis, Mo., USA)+1% NaHCO3 (Sigma, St. Louis, Mo., USA) every 5 days and stored at approximately 25° C. in the dark.\n5.0×10^6 NCI-H23 cells/animal (0.1 ml injection volume) were implanted SC into the right flank of Balb/c nude mice.\nExperimental Design: 7-9 week old female Balb/c nude mice were inoculated subcutaneously in the flank (cell suspension) with 5.0×10^6 NCI-H23 cells. Tumor growth was monitored with vernier calipers. The mean tumor volume was calculated using the formula V=W^2×L/2. When the mean tumor volume (MTV) reached approximately 105 mm^3, the animals were randomized into 8 treatment groups (n=8/group). […] Tumor growth and body weight were measured twice per week. Tumor growth inhibition and body weight change were calculated on Day 99 of treatment.\nAntitumor activity was determined by calculating the percent TGI ([mean tumor volume of the control group−mean tumor volume of a treated group]/mean tumor volume of the control group) on Day 99. Treatment started on Day 1 for 21 days. […] The use of Day 99 allows us to evaluate tumor response and statistically compare the ΔAUC for each group over the regrowth period.\nAdditional endpoints used to evaluate efficacy were: complete and partial tumor response CR and PR), and the number of tumor-free survivors (TFS) at the end of the study.\nStatistical Analysis: Statistical analysis was performed with a linear mixed effects regression model. This model takes into account the differences in trends of tumor growth between control and treated samples. Differences among mice were treated as random effects, and a compound symmetry covariance structure was used to model the variability between repeated tumor measurements on each mouse. Treatment comparisons were performed by using the fitted curves from the model to calculate the changes in the areas under the tumor volume-versus-time curves (ΔAUCs). The significance of the ΔAUC was assessed using permutation testing. P-values <0.05 were considered significant.\nThe change in AUC relative to the control was calculated for both single agent treatment groups as well as the combination group."}, "[2]": {"tested_on": "A2780", "assay": "Cells with greater than 4N DNA by flow cytometry, A2780", "description": "(§1) A2780, A375, PC-3 and SK-MEL-2 cells were seeded at 2×10^4 cells/ml and grown on 6 well cell culture dishes overnight at 37° C. with 5% CO2. […] At the relevant time points cells were harvested with trypsin ethylenediaminetetraacetic acid (EDTA) 1× (Gibco/Invitrogen [Carlsbad, Calif., USA]), washed once with phosphate-buffered saline (PBS), fixed in 70% ethanol and stored at −20° C. for at least 24 hours. The cells were washed once more in PBS, then resuspended in 50 μg/ml propidium iodide (Invitrogen, [Carlsbad, Calif., USA]) and 30 μg/ml ribonuclease (RNAse) A (Sigma [St Louis, Mo., USA]) in PBS and incubated for 30 minutes at room temperature protected from light. Cell cycle distributions were determined by measuring deoxyribonucleic acid (DNA) content using flow cytometry on a FACS Canto II flow cytometer (Becton Dickinson [San Jose, Calif., USA]) and samples were analyzed using [sequence] software (Becton Dickinson [San Jose, Calif., USA])."}, "[3]": {"tested_on": "A2780 cells", "assay": "Quantification of sub-diploid cells by flow cytometry", "settings": "A2780, 96 hours, single agents: TAK-733 50 nM or 200 nM, MLN8237 20 nM (50 nM MLN8237 sample was the exception), FIG. 2A", "description": "Sub-diploid cells were gated as those with a lower level of propidium iodide fluorescence than cells with 2N DNA content.\nas §1"}, "[4]": {"tested_on": "A375", "assay": "BrdU proliferation assay, A375", "settings": "Homo sapiens, A-375, 96 h", "description": "(§2) A2780, A375, PC-3, and SK-MeI-2 human tumor cell lines were seeded at 2.0×10^3, 1.0×10^3, 4.0×10^3 and 2.0×10^3 cells per well, respectively, in 80 μL of the appropriate cell culture growth media. Plating densities were chosen to ensure optimal linear growth over 120 hours. After 20 hours, 10 μL of each compound was added to the cells in a matrix with dose responses of both agents. […] Each matrix was generated in triplicate with each replicate on a separate plate.\n(§3) Cell proliferation of each cell line was measured using the cell proliferation enzyme-linked immunosorbent assay (ELISA), 5-bromo-2-deoxyuridine (BrdU) colorimetric kit according to the manufacturer's instructions (Roche [Mannheim, Germany]). The assay measures cell proliferation by quantifying BrdU incorporation into replicating deoxyribonucleic acid (DNA). Briefly, each well was incubated with 10 μL of BrdU labeling reagent for 2 hours at 37° C. in a humidified cell culture chamber. After aspiration of the labeling media, the plates were wrapped in foil and kept at 4° C. to assay at a future time. The cells were fixed and denatured by adding 100 µL of ethanol to each well and incubated for 30 minutes at room temperature. The ethanol was aspirated and 50 μl of blocking reagent (Roche [Mannheim, Germany]) was added to the cells and incubated for 30 minutes. 100 μL of peroxidase-conjugated anti BrdU antibody ([anti-BrdU-POD]; 1:100 in antibody dilution buffer) was added to the cells. The cells were incubated with the antibody for 120 minutes at room temperature. The cells were then washed 2× with 150 μL of wash buffer per well and 100 μL of tetramethyl benzidine was then added. The cells were incubated for 15 to 30 minutes at room temperature prior to spectrophotometric analysis. A SpectraMax Plus 384 plate reader (Molecular Devices [Sunny Vale Calif., USA]) or WALLAC 1420 Workstation (Perkin Elmer [Turku, Finland]) were used to measure the absorbance of each well at 395 or 405 nm, respectively, depending on the machine used. The A2780 and A375 cell lines were measured using the SpectraMax Plus at 395 nm, while the PC-3 and SK-Mel-2 cell lines were measured using the WALLAC 1420 Workstation at 405 nm. Analysis of the data was performed using GraphPad Prism 5.0."}, "[5]": {"tested_on": "A2780", "assay": "BrdU proliferation assay, A2780", "settings": "Homo sapiens, A2780, 96 h", "description": "as §2, §3"}, "[6]": {"tested_on": "SKMEL-2", "assay": "BrdU proliferation assay, SKMEL-2", "settings": "Homo sapiens, SK-MEL-2, 96 h", "description": "as §2, §3"}, "[7]": {"tested_on": "Panc-1 Human Pancreatic Carcinoma Xenografts", "assay": "Antitumor activity in female nude mice bearing Panc-1 xenografts", "settings": "MLN8237 30 mg/kg QD for 21 days (oral per title; b268 prints SC); Day 63; p<0.001 vs vehicle", "description": "Experimental Design: Low passage (passage TC08) Panc-1 cells (ATCC, Manassas, Va., USA) were grown in Roswell Park Memorial Institute (RPMI)-1640 (ATCC, Manassas, Va., USA) 10% Fetal Bovine Serum (PAA Laboratories PTY LTD, Morningside, QLD, Australia) and supplied at a concentration of 5.0×10^7 cells/mLl in Dulbecco's phosphate-buffered saline (DPBS) (Invitrogen-Gibco, Grand Island, N.Y., USA). Cells were mixed 1:1 with Matrigel support (BD Biosciences, Bedford, Mass., USA) and 5.0×10^6 Panc-1 cells/animal (0.2 mL injection volume) were implanted SC into the right flank of female Balb/c nude mice.\nTumor growth was monitored twice weekly using calipers and the mean tumor volume was calculated using the formula (0.5×[length×width^2]). […] Tumor size and body weight were measured twice weekly and the study was terminated on Day 63 when tumors in the control group reached approximately 1127.8 mm^3. Tumor volumes and BW of animals in the combination treatment group were monitored up to Day 111.\nAntitumor activity was determined by calculating the percent TGI ([mean tumor volume of the control group—mean tumor volume of a treated group]/mean tumor volume of the control group) on Day 63. Treatment started on Day 1 and lasted through Day 21. Maximum percent BWL was evaluated during the treatment period (Day 1-Day 21). […]"}, "[8]": {"tested_on": "SKMEL-2", "assay": "Cells with greater than 4N DNA by flow cytometry, SKMEL-2", "description": "as §1"}, "[9]": {"tested_on": "PC3", "assay": "Cells with greater than 4N DNA by flow cytometry, PC3", "description": "as §1"}, "[10]": {"tested_on": "A375", "assay": "Cells with greater than 4N DNA by flow cytometry, A375", "description": "as §1"}, "[11]": {"tested_on": "PC-3", "assay": "BrdU proliferation assay, PC-3", "settings": "Homo sapiens, PC-3, 96 h", "description": "as §2, §3"}, "[12]": {"settings": "MLN8237 30 mg/kg PO for 21 days, mice of 8"}}, "note": "Like-named read-outs stand apart in the source and are kept apart here."}
{"smiles": "COc1cc(Nc2ncc3c(n2)-c2ccc(Cl)cc2C(c2c(F)cccc2OC)=NC3)ccc1C(=O)[O-].O.[Na+]", "note": "[MLN8237]", "values": [{"measurement": "TGI", "setting": "[1]; MLN8237 20 mg/kg PO QD for 21 days, p>0.05 vs control", "result": 43.4, "unit": "%"}, {"measurement": "TFS (tumor-free survivors)", "setting": "[1]; MLN8237 20 mg/kg PO QD for 21 days", "result": 2}, {"measurement": "CR (complete tumor response)", "setting": "[1]; MLN8237 20 mg/kg PO QD for 21 days, mice of 8", "result": "2 of 8"}, {"measurement": "TGI", "setting": "[1]; MLN8237 30 mg/kg PO for 21 days, p<0.05 vs vehicle", "result": 73.3, "unit": "%"}, {"measurement": "TFS (tumor-free survivors)", "setting": "[1]; MLN8237 30 mg/kg PO for 21 days", "result": 2}, {"measurement": "CR (complete tumor response)", "setting": "[1]; [12]", "result": "4 of 8"}, {"measurement": "PR (partial tumor response)", "setting": "[1]; [12]", "result": "4 of 8"}, {"measurement": "Percentage of cells with greater than 4N DNA", "setting": "[2]; A2780, 24 Hr, DMSO 1.7", "result": 9.6, "unit": "%"}, {"measurement": "Percentage of cells with greater than 4N DNA", "setting": "[2]; A2780, 48 Hr, DMSO 2.2", "result": 13, "unit": "%"}, {"measurement": "percentage of sub-diploid cells relative to DMSO", "setting": "[3]", "result": "neither TAK-733 nor MLN8237 caused appreciable increases"}, {"measurement": "IC50", "setting": "[4]; read-out: MLN8237 IC50, A375, TAK-733 0.0 nM", "result": 59, "unit": "nM"}, {"measurement": "IC50", "setting": "[4]; read-out: MLN8237 IC50, A375, TAK-733 0.0001 nM", "result": 73, "unit": "nM"}, {"measurement": "IC50", "setting": "[4]; read-out: MLN8237 IC50, A375, TAK-733 0.001 nM", "result": 63, "unit": "nM"}, {"measurement": "IC50", "setting": "[4]; read-out: MLN8237 IC50, A375, TAK-733 0.01 nM", "result": 58, "unit": "nM"}, {"measurement": "IC50", "setting": "[4]; read-out: MLN8237 IC50, A375, TAK-733 0.1 nM", "result": 62, "unit": "nM"}, {"measurement": "IC50", "setting": "[4]; read-out: MLN8237 IC50, A375, TAK-733 1 nM", "result": 65, "unit": "nM"}, {"measurement": "IC90", "setting": "[4]; read-out: MLN8237 IC90, A375, TAK-733 0.0 nM", "result": 530, "unit": "nM"}, {"measurement": "IC90", "setting": "[4]; read-out: MLN8237 IC90, A375, TAK-733 0.0001 nM", "result": 554, "unit": "nM"}, {"measurement": "IC90", "setting": "[4]; read-out: MLN8237 IC90, A375, TAK-733 0.001 nM", "result": 408, "unit": "nM"}, {"measurement": "IC90", "setting": "[4]; read-out: MLN8237 IC90, A375, TAK-733 0.01 nM", "result": 882, "unit": "nM"}, {"measurement": "IC90", "setting": "[4]; read-out: MLN8237 IC90, A375, TAK-733 0.1 nM", "result": 325, "unit": "nM"}, {"measurement": "IC90", "setting": "[4]; read-out: MLN8237 IC90, A375, TAK-733 1 nM", "result": "> 5000", "unit": "nM"}, {"measurement": "IC50", "setting": "[5]; read-out: MLN8237 IC50, A2780, TAK-733 0.0 nM", "result": 43, "unit": "nM"}, {"measurement": "IC50", "setting": "[5]; read-out: MLN8237 IC50, A2780, TAK-733 0.64 nM", "result": 34, "unit": "nM"}, {"measurement": "IC50", "setting": "[5]; read-out: MLN8237 IC50, A2780, TAK-733 3.2 nM", "result": 29, "unit": "nM"}, {"measurement": "IC50", "setting": "[5]; read-out: MLN8237 IC50, A2780, TAK-733 16 nM", "result": 19, "unit": "nM"}, {"measurement": "IC50", "setting": "[5]; read-out: MLN8237 IC50, A2780, TAK-733 80 nM", "result": 11, "unit": "nM"}, {"measurement": "IC90", "setting": "[5]; read-out: MLN8237 IC90, A2780, TAK-733 0.0 nM", "result": "> 5000", "unit": "nM"}, {"measurement": "IC90", "setting": "[5]; read-out: MLN8237 IC90, A2780, TAK-733 0.64 nM", "result": "> 5000", "unit": "nM"}, {"measurement": "IC90", "setting": "[5]; read-out: MLN8237 IC90, A2780, TAK-733 3.2 nM", "result": 288, "unit": "nM"}, {"measurement": "IC90", "setting": "[5]; read-out: MLN8237 IC90, A2780, TAK-733 16 nM", "result": 28, "unit": "nM"}, {"measurement": "IC90", "setting": "[5]; read-out: MLN8237 IC90, A2780, TAK-733 80 nM", "result": 46, "unit": "nM"}, {"measurement": "IC50", "setting": "[6]; read-out: MLN8237 IC50, SKMEL-2, TAK-733 0.0 nM", "result": 67, "unit": "nM"}, {"measurement": "IC50", "setting": "[6]; read-out: MLN8237 IC50, SKMEL-2, TAK-733 0.01 nM", "result": 66, "unit": "nM"}, {"measurement": "IC50", "setting": "[6]; read-out: MLN8237 IC50, SKMEL-2, TAK-733 0.1 nM", "result": 54, "unit": "nM"}, {"measurement": "IC50", "setting": "[6]; read-out: MLN8237 IC50, SKMEL-2, TAK-733 1 nM", "result": 48, "unit": "nM"}, {"measurement": "IC50", "setting": "[6]; read-out: MLN8237 IC50, SKMEL-2, TAK-733 10 nM", "result": 16, "unit": "nM"}, {"measurement": "IC90", "setting": "[6]; read-out: MLN8237 IC90, SKMEL-2, TAK-733 0.0 nM", "result": "> 5000", "unit": "nM"}, {"measurement": "IC90", "setting": "[6]; read-out: MLN8237 IC90, SKMEL-2, TAK-733 0.01 nM", "result": "> 5000", "unit": "nM"}, {"measurement": "IC90", "setting": "[6]; read-out: MLN8237 IC90, SKMEL-2, TAK-733 0.1 nM", "result": "> 5000", "unit": "nM"}, {"measurement": "IC90", "setting": "[6]; read-out: MLN8237 IC90, SKMEL-2, TAK-733 1 nM", "result": "> 5000", "unit": "nM"}, {"measurement": "IC90", "setting": "[6]; read-out: MLN8237 IC90, SKMEL-2, TAK-733 10 nM", "result": 309, "unit": "nM"}, {"measurement": "TGI", "setting": "[7]", "result": "−6.4", "unit": "%"}, {"measurement": "Percentage of cells with greater than 4N DNA", "setting": "[8]; SKMEL-2, 24 Hr, DMSO 3.1", "result": 14.5, "unit": "%"}, {"measurement": "Percentage of cells with greater than 4N DNA", "setting": "[8]; SKMEL-2, 48 Hr, DMSO 2.7", "result": 36.4, "unit": "%"}, {"measurement": "Percentage of cells with greater than 4N DNA", "setting": "[9]; PC3, 24 Hr, DMSO 10.5", "result": 21, "unit": "%"}, {"measurement": "Percentage of cells with greater than 4N DNA", "setting": "[9]; PC3, 48 Hr, DMSO 10.7", "result": 30.5, "unit": "%"}, {"measurement": "Percentage of cells with greater than 4N DNA", "setting": "[10]; A375, 24 Hr, DMSO 0.9", "result": 16, "unit": "%"}, {"measurement": "Percentage of cells with greater than 4N DNA", "setting": "[10]; A375, 48 Hr, DMSO 1.4", "result": 18.6, "unit": "%"}, {"measurement": "IC50", "setting": "[11]; read-out: MLN8237 IC50, PC-3, TAK-733 0.0 nM", "result": 134, "unit": "nM"}, {"measurement": "IC50", "setting": "[11]; read-out: MLN8237 IC50, PC-3, TAK-733 16 nM", "result": 84, "unit": "nM"}, {"measurement": "IC50", "setting": "[11]; read-out: MLN8237 IC50, PC-3, TAK-733 80 nM", "result": 93, "unit": "nM"}, {"measurement": "IC50", "setting": "[11]; read-out: MLN8237 IC50, PC-3, TAK-733 400 nM", "result": 100, "unit": "nM"}, {"measurement": "IC50", "setting": "[11]; read-out: MLN8237 IC50, PC-3, TAK-733 2000 nM", "result": 74, "unit": "nM"}, {"measurement": "IC90", "setting": "[11]; read-out: MLN8237 IC90, PC-3, TAK-733 0.0 nM", "result": "> 5000", "unit": "nM"}, {"measurement": "IC90", "setting": "[11]; read-out: MLN8237 IC90, PC-3, TAK-733 16 nM", "result": "> 5000", "unit": "nM"}, {"measurement": "IC90", "setting": "[11]; read-out: MLN8237 IC90, PC-3, TAK-733 80 nM", "result": 1060, "unit": "nM"}, {"measurement": "IC90", "setting": "[11]; read-out: MLN8237 IC90, PC-3, TAK-733 400 nM", "result": 890, "unit": "nM"}, {"measurement": "IC90", "setting": "[11]; read-out: MLN8237 IC90, PC-3, TAK-733 2000 nM", "result": 569, "unit": "nM"}]}
